Experimental findings from patent publication US6399643B1, “Spiroimidazolidine derivatives, their preparation, their use and pharmaceutical preparations formed therefrom” (Aventis Pharma Deutschland GmbH, priority 1999, dated 2002) are described below.

Where a name gives a salt, the structure may show the parent alone.

The target in the assay is T1, interaction between VCAM-1 and VLA-4 (Homo sapiens, UniProt P05556+P13612).
T1 construct: supplied in their natural form as surface molecules on human U937 cells; host or cells: human U937 cells (VLA-4, endogenous); the partner hVCAM-1(1-3)-IgG was made in house in transfected COS cells (ATCC CRL1651) and used as culture supernatant
T1 sequence (P13612 34-1032): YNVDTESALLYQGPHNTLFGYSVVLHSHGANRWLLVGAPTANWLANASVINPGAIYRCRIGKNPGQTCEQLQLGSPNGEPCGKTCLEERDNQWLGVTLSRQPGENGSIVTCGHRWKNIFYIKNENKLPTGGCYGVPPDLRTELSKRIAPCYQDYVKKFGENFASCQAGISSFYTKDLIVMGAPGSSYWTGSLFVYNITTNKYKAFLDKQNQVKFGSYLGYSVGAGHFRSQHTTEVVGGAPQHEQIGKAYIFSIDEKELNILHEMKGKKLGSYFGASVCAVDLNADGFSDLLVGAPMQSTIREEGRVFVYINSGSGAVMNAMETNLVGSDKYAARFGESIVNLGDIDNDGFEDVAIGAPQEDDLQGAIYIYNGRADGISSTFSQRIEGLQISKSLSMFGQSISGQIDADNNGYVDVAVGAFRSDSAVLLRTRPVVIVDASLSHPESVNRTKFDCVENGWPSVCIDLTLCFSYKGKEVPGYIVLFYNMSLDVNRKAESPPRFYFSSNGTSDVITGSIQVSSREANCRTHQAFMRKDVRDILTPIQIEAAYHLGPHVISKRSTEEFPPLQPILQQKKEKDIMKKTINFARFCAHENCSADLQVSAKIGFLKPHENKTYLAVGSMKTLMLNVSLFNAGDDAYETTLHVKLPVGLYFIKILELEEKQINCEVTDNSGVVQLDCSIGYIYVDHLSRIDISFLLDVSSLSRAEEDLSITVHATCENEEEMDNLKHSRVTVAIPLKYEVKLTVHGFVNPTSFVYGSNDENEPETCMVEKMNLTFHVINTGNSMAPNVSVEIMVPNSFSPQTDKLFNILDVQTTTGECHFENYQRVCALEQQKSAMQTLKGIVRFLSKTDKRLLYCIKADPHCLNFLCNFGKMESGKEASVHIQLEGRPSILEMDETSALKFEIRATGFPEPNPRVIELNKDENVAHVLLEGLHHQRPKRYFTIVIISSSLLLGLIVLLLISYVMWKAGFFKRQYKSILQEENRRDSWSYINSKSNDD
T1 sequence (P05556 21-798): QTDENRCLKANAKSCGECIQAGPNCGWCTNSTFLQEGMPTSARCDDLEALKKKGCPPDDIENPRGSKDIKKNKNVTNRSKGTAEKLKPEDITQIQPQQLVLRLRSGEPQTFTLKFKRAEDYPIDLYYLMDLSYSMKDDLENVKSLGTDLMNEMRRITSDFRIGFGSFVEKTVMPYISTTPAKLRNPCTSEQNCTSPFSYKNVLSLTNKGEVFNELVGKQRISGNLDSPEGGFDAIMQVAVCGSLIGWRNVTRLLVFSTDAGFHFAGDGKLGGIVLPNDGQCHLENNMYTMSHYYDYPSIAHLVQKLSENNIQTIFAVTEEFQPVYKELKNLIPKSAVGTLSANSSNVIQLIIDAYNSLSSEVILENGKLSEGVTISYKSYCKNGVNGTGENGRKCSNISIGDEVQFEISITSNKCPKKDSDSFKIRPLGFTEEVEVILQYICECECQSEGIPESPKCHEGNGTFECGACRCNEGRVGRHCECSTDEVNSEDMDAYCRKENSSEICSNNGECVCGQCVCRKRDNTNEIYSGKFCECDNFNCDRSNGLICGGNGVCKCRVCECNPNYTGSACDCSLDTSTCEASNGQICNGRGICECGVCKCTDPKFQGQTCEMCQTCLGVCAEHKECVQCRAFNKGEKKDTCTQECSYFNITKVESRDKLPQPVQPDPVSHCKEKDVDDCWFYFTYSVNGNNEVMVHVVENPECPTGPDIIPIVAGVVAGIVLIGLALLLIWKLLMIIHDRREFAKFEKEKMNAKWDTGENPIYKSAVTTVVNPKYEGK
Briefly: U937/VCAM-1 cell adhesion test (adhesion of U937 cells to hVCAM-1(1-3)-IgG). Type of assay: cell-based. Particulars: inhibition of adhesion of human U937 cells (ATCC CRL 1593) to hVCAM-1(1-3)-IgG. The text has this: A) U937/VCAM-1 Cell Adhesion Test
The test method used for the activity of the compounds of the formula I on the interaction between VCAM-1 and VLA-4 is the assay described below, which is specific for this interaction. The cellular binding components, that is the VLA-4 integrins, are supplied in their natural form as surface molecules on human U937 cells (ATCC CRL 1593), which belong to the leukocytes group. The specific binding components used are genetically engineered recombinant soluble fusion proteins, consisting of the extracytoplasmic domain of human VCAM-1 and the constant region of a human immunoglobulin of the subclass IgG1.
Assay for the Measurement of the Adhesion of U937 Cells (ATCC CRL 1593) to hVCAM-1 (1-3)-IgG
1. Preparation of Human VCAM-1(1-3)-IgG and Human CD4-IgG
A genetic construct for the expression of the extracellular domain of human VCAM-1, combined with the genetic sequence of the heavy chain of human immunoglobulin IgG1 (hinge, CH2 and CH3 regions) (from Brian Seed, Massachusetts General Hospital, Boston, USA; cf. Damle and Aruffo, Proc. Natl. Acad. Sci. USA 1991, 88, 6403), was employed. The soluble fusion protein hVCAM-1(1-3)-IgG contained the three aminoterminal extracellular immunoglobulin-like domains of human VCAM-1 (Damle and Aruffo, Proc. Natl. Acad. Sci. USA 1991, 88, 6403). CD4-IgG (Zettlmeissl et al., DNA and Cell Biology 1990, 9, 347) served as a fusion protein for negative controls. The recombinant proteins were expressed as soluble proteins after DEAE/dextran-mediated DNA transfection in COS cells (ATCC CRL1651) according to standard procedures (Ausubel et al., Current protocols in molecular biology, John Wiley & Sons, Inc., 1994).
2. Assay for the Measurement of the Adhesion of U937 Cells to hVCAM-1(1-3)-IgG
2.1 96-well microtiter test plates (Nunc Maxisorb) were incubated at room temperature for 1 hour with 100 μl/well of a goat-anti-human IgG antibody solution (10 μg/ml in 50 mM tris, pH 9.5). After removal of the antibody solution, washing was carried out once with PBS.
2.2 150 μl/well of a blocking buffer (1% BSA in PBS) were incubated on the plates at room temperature for 0.5 hour. After removal of the blocking buffer, washing was carried out once with PBS.
2.3 100 μl per well of a cell culture supernatant of transfected COS cells were incubated on the plates at room temperature for 1.5 hours. The COS cells were transfected with a plasmid which codes for the three N-terminal immunoglobulin-like domains of VCAM-1, coupled to the Fc portion of human IgG1 (hVCAM-1 (1-3)-IgG). The content of hVCAM-1(1-3)-IgG was about 0.5-1 μg/ml. After removing the culture supernatant, washing was carried out once with PBS.
2.4 The plates were incubated at room temperature for 20 minutes with 100 μl/well of Fc receptor blocking buffer (1 mg/ml of γ-globulin, 100 mM NaCl, 100 μM MgCl2, 100 μM MnCl2, 100 μM CaCl2, 1 mg/ml of BSA in 50 mM HEPES, pH 7.5). After removal of the Fc receptor blocking buffer, washing was carried out once with PBS.
2.5 20 μl of binding buffer (100 μM NaCl, 100 μM MgCl2, 100 μM MnCl2, 100 μM CaCl2, 1 mg/ml of BSA in 50 mM HEPES, pH 7.5) were initially introduced, and the substances to be tested were added in 10 μl of binding buffer and incubated for 20 minutes. The controls used were antibodies against VCAM-1(BBT, No. BBA6) and against VLA-4(Immunotech, No. 0764).
2.6 U937 cells were incubated in Fc receptor blocking buffer for 20 minutes and then pipetted in at a concentration of 1×10^6/ml and in an amount of 100 μl per well ([…]).
2.7 The plates were slowly immersed at an angle of 45° in stop buffer (100 mM NaCl, 100 μM MgCl2, 100 μM MnCl2, 100 μM CaCl2 in 25 mM Tris, pH 7.5) and shaken off. The process was repeated.
2.8 50 μl/well of a dye solution ([…] of Hoechst Dye 33258, 4% formaldehyde, 0.5% Triton X-100 in PBS) were then incubated on the plates for 15 minutes. […]

A word on the IC50: it is the concentration at which inhibition is half-maximal. Read a low IC50 as greater potency.

For `COc1cccc([C@H](CC(=O)O)NC(=O)[C@H](CC(C)C)N2C(=O)N(Cc3ccc(NC(=O)Nc4ccccc4C)cc3)C3(CCCCC3)C2=O)c1` [Example 25, (S)-3-((S)-2-(4,4-Pentamethylene-3-(4-(3-(2-methylphenyl)ureido)benzyl)-2,5-dioxoimidazolidin-1-yl)-2-(2-methylpropyl)acetylamino)-3-(3-methoxyphenyl)propionic acid], the IC50 is 1.1 nM. For `COc1ccc([C@H](CC(=O)O)NC(=O)[C@H](CC(C)C)N2C(=O)N(Cc3ccc(NC(=O)Nc4ccccc4C)cc3)C3(CCCCC3)C2=O)cc1` [Example 26, (S)-3-((S)-2-(4,4-Pentamethylene-3-(4-(3-(2-methylphenyl)ureido)benzyl)-2,5-dioxoimidazolidin-1-yl)-2-(2-methylpropyl)acetylamino)-3-(4-methoxyphenyl)propionic acid] the value was 2.6 nM. Next, `COc1ccc([C@H](CC(=O)O)NC(=O)[C@H](CC(C)C)N2C(=O)N(Cc3ccc(NC(=O)Nc4ccccc4C)cc3)C3(CCCCC3)C2=O)cc1` [Example 27, (S)-3-((S)-2-(4,4-Pentamethylene-3-(4-(3-(2-methylphenyl)ureido)benzyl)-2,5-dioxoimidazolidin-1-yl)-2-(2-methylpropyl)acetylamino)-3-(4-methoxyphenyl)propionic acid tromethamine salt]: 3.4 nM.

In turn, `COc1ccc([C@H](CC(=O)O)NC(=O)[C@H](CC(C)C)N2C(=O)N(Cc3ccc(NC(=O)Nc4ccccc4C)cc3)C3(CCCCC3)C2=O)c(OC)c1` [Example 28, (S)-3-((S)-2-(4,4-Pentamethylene-3-(4-(3-(2-methyphenyl)ureido)benzyl)-2,5-dioxoimidazolidin-1-yl)-2-(2-methylpropyl)acetylamino)-3-(2,4-dimethoxyphenyl)propionic acid] came in with an IC50 of 2.1 nM. Regarding `COc1ccc([C@H](CC(=O)O)NC(=O)[C@H](CC(C)C)N2C(=O)N(Cc3ccc(NC(=O)Nc4ccccc4C)cc3)C3(CCCCC3)C2=O)c(OC)c1` [Example 29, (S)-3-((S)-2-(4,4-Pentamethylene-3-(4-(3-(2-methylphenyl)ureido)benzyl-2,5-dioxoimidazolidin-1-yl)-2-(2-methylpropyl)acetylamino)-3-(2,4-dimethoxyphenyl)propionic acid tromethamine salt], the IC50 amounted to 1.9 nM. The IC50 values of the last two compounds are within 1.5-fold of each other. As for `COc1ccc([C@H](CC(=O)O)NC(=O)[C@H](CC(C)C)N2C(=O)N(Cc3ccc(NC(=O)Nc4ccccc4C)cc3)C3(CCCCC3)C2=O)c(OC)c1` [Example 30, (S)-3-((S)-2-(4,4-Pentamethylene-3-(4-(3-(2-methylphenyl)ureido)benzyl)-2,5-dioxoimidazolidin-1-yl)-2-(2-methylpropyl)acetylamino)-3-(2,4-dimethoxyphenyl)propionic acid sodium salt], it took 3.6 nM to reach half-maximal inhibition (IC50). Next, `COc1ccc([C@H](CC(=O)O)NC(=O)[C@H](CC(C)C)N2C(=O)N(Cc3ccc(NC(=O)Nc4ccccc4C)cc3)C3(CCCCC3)C2=O)cc1OC` [Example 31, (S)-3-((S)-2-(4,4-Pentamethylene-3-(4-(3-(2-methylphenyl)ureido)benzyl)-2,5-dioxoimidazolidin-1-yl)-2-(2-methylpropyl)acetylamino)-3-(3,4-dimethoxyphenyl)propionic acid]: 0.8 nM. Next, `COc1ccc([C@H](CC(=O)O)NC(=O)[C@H](CC(C)C)N2C(=O)N(Cc3ccc(NC(=O)Nc4ccccc4C)cc3)C3(CCCCC3)C2=O)cc1OC` [Example 32, (S)-3-((S)-2-(4,4-Pentamethylene-3-(4-(3-(2-methylphenyl)ureido)benzyl)-2,5-dioxoimidazolidin-1-yl)-2-(2-methylpropyl)acetylamino)-3-(3,4-dimethoxyphenyl)propionic acid tromethamine salt]: 0.6 nM; `COc1ccc([C@H](CC(=O)O)NC(=O)[C@H](CC(C)C)N2C(=O)N(Cc3ccc(NC(=O)Nc4ccccc4C)cc3)C3(CCCCC3)C2=O)cc1OC` [Example 33, (S)-3-((S)-2-(4,4-Pentamethylene-3-(4-(3-(2-methylphenyl)ureido)benzyl)-2,5-dioxoimidazolidin-1-yl)-2-(2-methylpropyl)acetylamino)-3-(3,4-dimethoxyphenyl)propionic acid sodium salt]: 1.3 nM; `Cc1ccccc1NC(=O)Nc1ccc(CN2C(=O)N([C@@H](CC(C)C)C(=O)N[C@@H](CC(=O)O)c3ccc4c(c3)OCCO4)C(=O)C23CCCCC3)cc1` [Example 34, (S)-3-((S)-2-(4,4-Pentamethylene-3-(4-(3-(2-methylphenyl)ureido)benzyl)-2,5-dioxoimidazolidin-1-yl)-2-(2-methylpropyl)acetylamino)-3-(3,4-ethylenedioxyphenyl)propionic acid]: 1.8 nM. In turn, `Cc1ccccc1NC(=O)Nc1ccc(CN2C(=O)N([C@@H](CC(C)C)C(=O)N[C@@H](CC(=O)O)c3ccc4c(c3)OCCO4)C(=O)C23CCCCC3)cc1` [Example 35, (S)-3-((S)-2-(4,4-Pentamethylene-3-(4-(3-(2-methylphenyl)ureido)benzyl)-2,5-dioxoimidazolidin-1-yl)-2-(2-methylpropyl)acetylamino)-3-(3,4-ethylenedioxyphenyl)propionic acid sodium salt] returned an IC50 of 3.4 nM. For `COc1cc(CN2C(=O)N([C@@H](CC(C)C)C(=O)N[C@@H](CC(=O)O)c3ccc(OC)c(OC)c3)C(=O)C23CCCCC3)ccc1NC(=O)Nc1ccccc1C` [Example 37, (S)-3-((S)-2-(4,4-Pentamethylene-3-(4-(3-(2-methylphenyl)ureido)-3-methoxybenzyl)-2,5-dioxoimidazolidin-1-yl)-2-(2-methylpropyl)acetylamino)-3-(3,4-dimethoxyphenyl)propionic acid] the value was 1.3 nM. For `COc1cc(CN2C(=O)N([C@@H](CC(C)C)C(=O)N[C@@H](CC(=O)O)c3ccc(OC)c(OC)c3)C(=O)C23CCCCC3)ccc1NC(=O)Nc1ccccc1C` [Example 38, (S)-3-((S)-2-(4,4-Pentamethylene-3-(4-(3-(2-methylphenyl)ureido)-3-methoxybenzyl)-2,5-dioxoimidazolidin-1-yl)-2-(2-methylpropyl)acetylamino)-3-(3,4-dimethoxyphenyl)propionic acid tromethamine salt] the value was 1.6 nM. For `COc1ccc([C@H](CC(=O)O)NC(=O)[C@H](CC2CC2)N2C(=O)N(Cc3ccc(NC(=O)Nc4ccccc4C)cc3)C3(CCCCC3)C2=O)cc1OC` [Example 39, (S)-3-((S)-2-(4,4-Pentamethylene-3-(4-(3-(2-methylphenyl)ureido)benzyl)-2,5-dioxoimidazolidin-1-yl)-2-cyclopropylmethylacetylamino)-3-(3,4-dimethoxyphenyl)propionic acid] the value was 0.8 nM.
